According to ChEMBL document CHEMBL5236550, “Small molecule selenium-containing compounds: Recent development and therapeutic applications” (Eur J Med Chem, 2021):
pIC50: −log10 of the molar value. Converted amounts (≈) assume the structure as drawn.

Experiments:
[1] = test system: Encephalomyocarditis virus; assay: Antiviral activity against Encephalomyocarditis virus infected in A549 cells assessed as viral growth inhibition incubated for 1 hrs; format: functional, organism-based; details: Cardiovirus A, A549, 1 h
Human alphaherpesvirus 1 = assay: Antiviral activity against Herpes simplex virus 1infected in A549 cells assessed as viral growth inhibition incubated for 1 hrs; format: functional
MCF7 [2] = assay: Anticancer activity against human MCF7 cells assessed as cell growth inhibition incubated for 72 hrs by MTT assay; format: functional, cell-based; details: MCF7, 72 h
MDA-MB-231 = assay: Anticancer activity against human MDA-MB-231 cells assessed as cell growth inhibition incubated for 72 hrs by MTT assay; format: functional, cell-based; details: MDA-MB-231, 72 h
PC-3 = assay: Anticancer activity against human PC-3 cells assessed as cell growth incubation incubated for 72 hrs by MTT assay; format: functional, cell-based; details: PC-3, 72 h
MCF7 [3] = assay: Anticancer activity against human MCF7 cells assessed as cell growth incubation incubated for 72 hrs by MTT assay; format: functional, cell-based; details: MCF7, 72 h
[4] = Anticancer activity against human PMNL assessed as cell growth inhibition incubated for 5 mins by luminescence reader analysis; format: functional, cell-based
Hs68 = assay: Anticancer activity against human Hs68 cells assessed as cell growth inhibition incubated for 72 hrs by MTT assay; format: functional, cell-based; details: Hs68, 72 h
A-375 [5] = assay: Anticancer activity against human A-375 cells assessed as cell growth inhibition incubated for 72 hrs by MTT assay; format: functional, cell-based; details: A-375, 72 h
SW-620 = assay: Anticancer activity against human SW620 cells assessed as cell growth inhibition incubated for 72 hrs by MTT assay; format: functional, cell-based; details: SW-620, 72 h
Trypanosoma cruzi = assay: Antibacterial activity against Trypanosoma cruzi Dm28c assessed as inhibition of bacterial growth incubated for 72 hrs by microplate reader analysis; format: functional, organism-based
A-375 [6] = assay: Anticancer activity against human A-375 cells assessed as cell growth inhibition incubated for 72 hrs by fluorescence based MTT assay; format: functional; details: A-375, 72 h
HepG2 = assay: Anticancer activity against human HepG2 cells assessed as cell growth inhibition incubated for 72 hrs by fluorescence based MTT assay; format: functional; details: HepG2, 72 h
MCF7 [7] = assay: Anticancer activity against human MCF7 cells assessed as cell growth inhibition incubated for 72 hrs by fluorescence based MTT assay; format: functional; details: MCF7, 72 h
Plasmodium falciparum = assay: […] inhibition incubated for 72 hrs by light microscopic analysis; format: functional, organism-based; details: K-1, 72 h
CNE-2 = assay: Anticancer activity against human CNE-2 cells assessed as cell growth inhibition incubated for 72 hrs by MTT assay; format: functional, cell-based; details: CNE-2, 72 h
HL-60 = assay: Anticancer activity against human HL-60 cells assessed as cell growth inhibition incubated for 72 hrs by MTT assay; format: functional, cell-based; details: HL-60, 72 h
Pichia kudriavzevii = assay: Antifungal activity against Candida krusei assessed as fungal growth inhibition incubated for 24 to 48 hrs by microdilution method; format: functional; details: time 24-48 hrs
PC-3M = assay: Anticancer activity against human PC-3M cells assessed as cell growth inhibition incubated for 24 hrs by MTT assay; format: functional, cell-based
[8] = Antitumor activity against human 1205Lu cells xenografted with mouse assessed as reduction in tumor volume at 0.127 uM, ip administered alternate days for 4 week relative to control; format: functional; parameters: scale not given: the % may be the effect or the level left; details: time 4 weeks
[9] = Anticancer activity against human WM35 cells assessed as cell growth inhibition incubated for 72 hrs by MTS assay; format: functional, cell-based; details: WM35, 72 h, pooled result: one value given for 4 cell lines, strains, targets or settings
UACC-903 = assay: Antitumor activity against human UACC-903 cells xenografted with mouse assessed as reduction in tumor volume at 0.127 uM, ip administered alternate days for 4 week relative to control; format: functional; parameters: scale not given: the % may be the effect or the level left; details: time 4 weeks
SH-SY5Y = assay: Anticancer activity against human SH-SY5Y cells assessed as cell viability incubated for 24 hrs by MTT assay relative to control; format: functional
LNCaP C4-2 = assay: Anticancer activity against human LNCaP C4-2 cells assessed as cell growth inhibition incubated for 24 hrs by MTT assay; format: functional, cell-based; details: LNCaP C4-2, 24 h
LNCaP = assay: Anticancer activity against human LNCaP cells assessed as cell growth inhibition incubated for 1.5 hrs by MTT assay; format: functional, cell-based
PANC-1 = assay: Anticancer activity against human PANC-1 cells assessed as cell growth inhibition by crystal violet staining based assay; format: functional
[10] = Anticancer activity against human Ela-myc- cells assessed as cell growth inhibition by crystal violet staining based assay; format: functional; details: Ela-myc-1 cell
MCF7 [11] = assay: Anticancer activity against human MCF7 cells assessed as cell growth inhibition; format: functional, cell-based

With O=c1c2ccccc2[se]n1Cc1ccccc1 as the molecule, how does the IC50 [1] read?
The IC50 was 6 µg/mL (≈ 20.8 µM).

What about the MIC (Human alphaherpesvirus 1) of the same molecule?
Its MIC is 2 µg/mL (≈ 6.94 µM).

With Cc1ccc2nc(-c3ccc4n[se]nc4c3)[nH]c2c1 as the molecule, how does the pIC50 (MCF7 [2]) read?
The pIC50 was 5.39.

What about the pIC50 (MDA-MB-231) of the same molecule?
The pIC50 was 6.00.

Which results are given for O=C(O)C[Se]C(=O)c1ccccc1?
pIC50 (PC-3): 5.17; pIC50 (MCF7 [3]): 7.05

With [Se]=C(c1ccccc1)N1CCCCC1 as the molecule, how does the pIC50 [4] read?
The pIC50 was 4.95.

Which IC50 [1] does the source give for CCOC(=O)n1[se]c2ccccc2c1=O here?
The IC50 was 10 µg/mL (≈ 37 µM).

What about the MIC (Human alphaherpesvirus 1) of the same molecule?
Its MIC is 10 µg/mL (≈ 37 µM).

With C[Se]C[C@H](N)C(=O)O [METHYLSELENOCYSTEINE] as the molecule, how does the pIC50 (Hs68) read?
The pIC50 was 4.30.

What about the pIC50 (MCF7 [2]) of the same molecule?
Its pIC50 is 3.71.

What about the pIC50 (A-375 [5]) of the same molecule?
The pIC50 was 4.27.

And the pIC50 (SW-620)?
Its pIC50 is 3.20.

With NC(=[Se])NN=C(c1cccc(Br)c1)c1cccc(Br)c1 as the molecule, how does the pIC50 (Trypanosoma cruzi) read?
The pIC50 was 5.92.

With O=C(O)C[Se]C(=O)c1cccnc1Cl as the molecule, how does the pIC50 (PC-3) read?
Its pIC50 is 5.00.

And the pIC50 (MCF7 [3])?
The pIC50 was 8.52.

With O=c1[nH]c(=O)c2n[se]nc2[nH]1 as the molecule, how does the pIC50 (A-375 [6]) read?
Its pIC50 is 4.84.

What about the pIC50 (HepG2) of the same molecule?
Its pIC50 is 4.71.

What about the pIC50 (MCF7 [7]) of the same molecule?
The pIC50 was 4.34.

What does the source list for Brc1ccc2nc(-c3ccc4n[se]nc4c3)[nH]c2c1?
pIC50 (MCF7 [2]): 4.81; pIC50 (MDA-MB-231): 5.89

Which results are given for N[C@@H](C[Se][Se]C[C@H](N)C(=O)O)C(=O)O?
pIC50 (Plasmodium falciparum): 4.19; pIC50 (CNE-2): 5.25; pIC50 (A-375 [5]): 5.44; pIC50 (HL-60): 4.46; pIC50 (SW-620): 5.14

Which MIC (Pichia kudriavzevii) does the source give for Clc1ccc(-c2c[se]c(NN=C3CCSCC3)n2)cc1 here?
The MIC was 3.91 µg/mL (≈ 10.5 µM).

With N#C[Se]Cc1cc(-c2ccccc2)n(-c2ccc(S(N)(=O)=O)cc2)n1 as the molecule, how does the pIC50 (PC-3M) read?
Its pIC50 is 5.30.

With Ic1ccc(-c2c[se]c(NN=C3CCSCC3)n2)cc1 as the molecule, how does the MIC (Pichia kudriavzevii) read?
The MIC was 0.98 µg/mL (≈ 2.12 µM).

What does the source list for Clc1ccc2nc(-c3ccc4n[se]nc4c3)[nH]c2c1?
pIC50 (MCF7 [2]): 4.58; pIC50 (MDA-MB-231): 5.68

Which results are given for NC(CCC(=O)NC(CS[Se]Cc1cc(-c2ccccc2)n(-c2ccc(S(N)(=O)=O)cc2)n1)C(=O)NCC(=O)O)C(=O)O (stereo not drawn)?
Activity [8]: 70%; pIC50 [9]: 5.12; Activity (UACC-903): 70%

With C=CCn1[se]c2ccccc2c1=O as the molecule, how does the Activity (SH-SY5Y) read?
Its Activity is 86%.

What does the source list for N#C[Se]Cc1ccc(C[Se]C#N)cc1?
pIC50 (LNCaP C4-2): 5.12; pIC50 (LNCaP): 5.15

With N#Cc1ccc(C(=O)[Se]CC(=O)O)cc1 as the molecule, how does the pIC50 (PC-3) read?
Its pIC50 is 5.00.

With C[Se](=O)O [METHYLSELENINIC ACID] as the molecule, how does the pIC50 (PANC-1) read?
Its pIC50 is 5.59.

What about the pIC50 (Plasmodium falciparum) of the same molecule?
Its pIC50 is 5.00.

What about the pIC50 [10] of the same molecule?
Its pIC50 is 5.49.

And the pIC50 (MCF7 [11])?
Its pIC50 is 5.70.

For Brc1ccc(-c2c[se]c(NN=C3CCSCC3)n2)cc1, which MIC (Pichia kudriavzevii) is on record?
The MIC was 3.91 µg/mL (≈ 9.42 µM).

For COc1ccc(-c2c[se]c(NN=C3CCSCC3)n2)cc1, which MIC (Pichia kudriavzevii) is on record?
Its MIC is 3.91 µg/mL (≈ 10.7 µM).

With COc1cc(OC)cc(C(=O)[Se]CC(=O)O)c1 as the molecule, how does the pIC50 (PC-3) read?
The pIC50 was 5.40.

Which results are given for CC(=O)n1[se]c2ccccc2c1=O?
IC50 [1]: 6 µg/mL (≈ 25 µM); MIC (Human alphaherpesvirus 1): 4 µg/mL (≈ 16.7 µM)

With CCCC/C(=N\NC(N)=[Se])c1ccc(Cl)c(Cl)c1 as the molecule, how does the pIC50 (Trypanosoma cruzi) read?
The pIC50 was 5.92.
